# Measurements from patent US10202361B2, “Pyridazinones as herbicides” (E I DU PONT DE NEMOURS AND COMPANY, priority 2014, dated 2019).
# Columns and labels:
# Format in all cases: in vivo
# [1] = system: rice (Oryza sativa); test: Test B flooded paddy test; settings: Flood, 125 g ai/ha; scale of 0 to 100, 0 is no effect, 100 is complete control; 13 to 15 d
# How it was run: (§1)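 Seedlings at 2 leaves are flooded to 3 cm, compound is added to the water, and that level is kept for the whole test. Plants stay in the greenhouse 13 to 15 d before visual comparison with controls, scored 0–100 where 100 means complete control.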
# [2] = system: ducksalad (Heteranthera limosa); test: Test B flooded paddy test; settings: Flood, 125 g ai/ha; scale of 0 to 100, 0 is no effect, 100 is complete control; 13 to 15 d
# How it was run: as §1
# [3] = system: barnyardgrass (Echinochloa crus-galli); test: Test B flooded paddy test; settings: Flood, 125 g ai/ha; scale of 0 to 100, 0 is no effect, 100 is complete control; 13 to 15 d
# How it was run: as §1
# [4] = system: sedge, umbrella (small-flower umbrella sedge, Cyperus difformis); test: Test B flooded paddy test; settings: Flood, 125 g ai/ha; scale of 0 to 100, 0 is no effect, 100 is complete control; 13 to 15 d
# How it was run: as §1
# [5] = system: morningglory (Ipomoea spp.); test: Test A pre-/postemergence greenhouse herbicide test; settings: 0 to 100 scale (0 no effect, 100 complete control), approx. 10 d
# How it was run: (§2)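 Greenhouse pot test, loam/sand soil. Pre: directed soil spray at seeding; post: foliar spray, 1–2 leaf, 2–10 cm height, same day. Read-out ~10 d: visual % control, 0–100 scale vs untreated.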
# [6] = system: crabgrass, Large (large crabgrass, Digitaria sanguinalis); test: as above; settings: 0 to 100 scale (0 no effect, 100 complete control), approx. 10 d
# How it was run: as §2
# [7] = system: pigweed (Amaranthus retroflexus); test: as above; settings: 0 to 100 scale (0 no effect, 100 complete control), approx. 10 d
# How it was run: as §2
# [8] = system: barnyardgrass (Echinochloa crus-galli); test: as above; settings: 0 to 100 scale (0 no effect, 100 complete control), approx. 10 d
# How it was run: as §2
# [9] = system: foxtail, giant (giant foxtail, Setaria faberii); test: as above; settings: 0 to 100 scale (0 no effect, 100 complete control), approx. 10 d
# How it was run: as §2
# [10] = system: velvetleaf (Abutilon theophrasti); test: as above; settings: 0 to 100 scale (0 no effect, 100 complete control), approx. 10 d
# How it was run: as §2
# [11] = system: wheat (Triticum aestivum); test: as above; settings: 0 to 100 scale (0 no effect, 100 complete control), approx. 10 d
# How it was run: as §2
# [12] = system: corn (Zea mays); test: as above; settings: 0 to 100 scale (0 no effect, 100 complete control), approx. 10 d
# How it was run: as §2
Compound,"Plant response rating, Rice [1]","Plant response rating, Ducksalad [2]","Plant response rating, Barnyardgrass [3]","Plant response rating, Sedge, Umbrella [4]","Plant response rating, Morningglory ([5]; Postemergence, 125 g ai/ha)","Plant response rating, Morningglory ([5]; Postemergence, 500 g ai/ha)","Plant response rating, Morningglory ([5]; Preemergence, 125 g ai/ha)","Plant response rating, Morningglory ([5]; Preemergence, 500 g ai/ha)","Plant response rating, Crabgrass, Large ([6]; Postemergence, 125 g ai/ha)","Plant response rating, Crabgrass, Large ([6]; Postemergence, 500 g ai/ha)","Plant response rating, Crabgrass, Large ([6]; Preemergence, 125 g ai/ha)","Plant response rating, Crabgrass, Large ([6]; Preemergence, 500 g ai/ha)","Plant response rating, Pigweed ([7]; Postemergence, 125 g ai/ha)","Plant response rating, Pigweed ([7]; Postemergence, 500 g ai/ha)","Plant response rating, Pigweed ([7]; Preemergence, 125 g ai/ha)","Plant response rating, Pigweed ([7]; Preemergence, 500 g ai/ha)","Plant response rating, Barnyardgrass ([8]; Postemergence, 125 g ai/ha)","Plant response rating, Barnyardgrass ([8]; Postemergence, 500 g ai/ha)","Plant response rating, Barnyardgrass ([8]; Preemergence, 125 g ai/ha)","Plant response rating, Barnyardgrass ([8]; Preemergence, 500 g ai/ha)",further results
CN(C)c1cc(=O)n(-c2ccc(F)cc2)nc1Cc1ccnc(C(F)(F)F)c1 [Compound 20],0,0,0,0,50,100,10,60,50,90,100,100,90,100,100,100,50,90,20,90,"Plant response rating, Foxtail, Giant ([9]; Postemergence, 125 g ai/ha): 40; Plant response rating, Foxtail, Giant ([9]; Postemergence, 500 g ai/ha): 80; Plant response rating, Foxtail, Giant ([9]; Preemergence, 125 g ai/ha): 80; Plant response rating, Foxtail, Giant ([9]; Preemergence, 500 g ai/ha): 100; Plant response rating, Velvetleaf ([10]; Postemergence, 125 g ai/ha): 60; Plant response rating, Velvetleaf ([10]; Postemergence, 500 g ai/ha): 70; Plant response rating, Velvetleaf ([10]; Preemergence, 125 g ai/ha): 20; Plant response rating, Velvetleaf ([10]; Preemergence, 500 g ai/ha): 50; Plant response rating, Wheat ([11]; Postemergence, 125 g ai/ha): 0; Plant response rating, Wheat ([11]; Postemergence, 500 g ai/ha): 50; Plant response rating, Wheat ([11]; Preemergence, 125 g ai/ha): 0; Plant response rating, Wheat ([11]; Preemergence, 500 g ai/ha): 30; Plant response rating, Corn ([12]; Postemergence, 125 g ai/ha): 30; Plant response rating, Corn ([12]; Postemergence, 500 g ai/ha): 60; Plant response rating, Corn ([12]; Preemergence, 125 g ai/ha): 0; Plant response rating, Corn ([12]; Preemergence, 500 g ai/ha): 10"
CN(C)c1cc(=O)n(-c2ccc(C(F)(F)F)cc2)nc1Cc1ccnc(C(F)(F)F)c1 [Compound 21],0,0,0,90,30,60,0,10,20,60,80,100,90,90,100,100,40,50,10,30,"Plant response rating, Foxtail, Giant ([9]; Postemergence, 125 g ai/ha): 30; Plant response rating, Foxtail, Giant ([9]; Postemergence, 500 g ai/ha): 50; Plant response rating, Foxtail, Giant ([9]; Preemergence, 125 g ai/ha): 30; Plant response rating, Foxtail, Giant ([9]; Preemergence, 500 g ai/ha): 70; Plant response rating, Velvetleaf ([10]; Postemergence, 125 g ai/ha): 60; Plant response rating, Velvetleaf ([10]; Postemergence, 500 g ai/ha): 80; Plant response rating, Velvetleaf ([10]; Preemergence, 125 g ai/ha): 0; Plant response rating, Velvetleaf ([10]; Preemergence, 500 g ai/ha): 20; Plant response rating, Wheat ([11]; Postemergence, 125 g ai/ha): 20; Plant response rating, Wheat ([11]; Postemergence, 500 g ai/ha): 30; Plant response rating, Wheat ([11]; Preemergence, 125 g ai/ha): 0; Plant response rating, Wheat ([11]; Preemergence, 500 g ai/ha): 10; Plant response rating, Corn ([12]; Postemergence, 125 g ai/ha): 20; Plant response rating, Corn ([12]; Postemergence, 500 g ai/ha): 40; Plant response rating, Corn ([12]; Preemergence, 125 g ai/ha): 0; Plant response rating, Corn ([12]; Preemergence, 500 g ai/ha): 0"
CCCc1cc(=O)n(-c2ccc(F)cc2)nc1Cc1ccnc(C(F)(F)F)c1 [Compound 24],20,30,0,90,50,90,30,80,70,90,100,100,100,100,100,100,70,90,70,100,"Plant response rating, Foxtail, Giant ([9]; Postemergence, 125 g ai/ha): 70; Plant response rating, Foxtail, Giant ([9]; Postemergence, 500 g ai/ha): 80; Plant response rating, Foxtail, Giant ([9]; Preemergence, 125 g ai/ha): 100; Plant response rating, Foxtail, Giant ([9]; Preemergence, 500 g ai/ha): 100; Plant response rating, Velvetleaf ([10]; Postemergence, 125 g ai/ha): 80; Plant response rating, Velvetleaf ([10]; Postemergence, 500 g ai/ha): 80; Plant response rating, Velvetleaf ([10]; Preemergence, 125 g ai/ha): 30; Plant response rating, Velvetleaf ([10]; Preemergence, 500 g ai/ha): 80; Plant response rating, Wheat ([11]; Postemergence, 125 g ai/ha): 50; Plant response rating, Wheat ([11]; Postemergence, 500 g ai/ha): 70; Plant response rating, Wheat ([11]; Preemergence, 125 g ai/ha): 30; Plant response rating, Wheat ([11]; Preemergence, 500 g ai/ha): 50; Plant response rating, Corn ([12]; Postemergence, 125 g ai/ha): 50; Plant response rating, Corn ([12]; Postemergence, 500 g ai/ha): 60; Plant response rating, Corn ([12]; Preemergence, 125 g ai/ha): 30; Plant response rating, Corn ([12]; Preemergence, 500 g ai/ha): 50"
